One experiment addresses T1, Human CD73 (Homo sapiens, UniProt P21589).
T1 construct: purchased R&D Systems; host or cells: CHO cells
T1 sequence (P21589 27-549): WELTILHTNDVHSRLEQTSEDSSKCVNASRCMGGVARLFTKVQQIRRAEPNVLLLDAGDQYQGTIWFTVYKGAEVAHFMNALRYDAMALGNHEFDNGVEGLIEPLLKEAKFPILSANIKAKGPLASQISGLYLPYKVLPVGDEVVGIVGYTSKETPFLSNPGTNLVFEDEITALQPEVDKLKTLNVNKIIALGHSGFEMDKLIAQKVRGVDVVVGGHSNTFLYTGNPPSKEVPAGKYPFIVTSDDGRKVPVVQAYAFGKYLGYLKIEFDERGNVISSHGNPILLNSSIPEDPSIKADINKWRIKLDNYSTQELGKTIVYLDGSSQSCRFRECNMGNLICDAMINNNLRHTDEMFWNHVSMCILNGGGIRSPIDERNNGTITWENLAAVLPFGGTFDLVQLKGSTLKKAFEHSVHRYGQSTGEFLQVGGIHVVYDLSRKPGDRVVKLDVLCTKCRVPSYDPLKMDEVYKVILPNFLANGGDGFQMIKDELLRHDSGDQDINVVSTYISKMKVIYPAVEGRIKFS
Briefly: CD73 Enzyme Assay (EnzChek PNP/MESG kinetic readout of AMP hydrolysis). In kind it is biochemical. To be noted: 0.25 nM hCD73, 25 μM AMP; read-out: CD73 Enzyme Assay IC50. Put shortly:
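Compounds tested as 15-point, 3-fold dilution series (300 μM to 0.0002 μM) in DMSO. Kinetic absorbance at 360 nm read every minute for 10–20 min, initial velocity taken from the linear portion.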

The target of experiment [1] is T2, CD73 on U138 human neuroglioma cells (Homo sapiens, UniProt P21589).
T2 construct: U138 cells were obtained from ATCC and cultured in DMEM with 10% FBS; host or cells: U138 human neuroglioma cells
T2 sequence (P21589 27-549): T1 sequence (P21589 27-549)
Kind of experiment: CD73 Cell-Based Assay (inorganic phosphate from AMP, malachite green). As to conditions: AMP substrate, 2 hours at 37° C., read-out: CD73 Cell-Based assay IC50. In short, it runs like this:
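U138 cells, seeded the day before at 2500 per well, were washed and given AMP substrate (200 μM in the added mixture, before dilution into the buffer) together with compound. After 2 h at 37 °C in 5% CO2, inorganic phosphate in the supernatant was measured with malachite green.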

What is called IC50 is the concentration that inhibits the measured activity by half. As to `C[C@@H](Nc1c(C#N)c(Cl)nc2c1cnn2[C@@H]1O[C@H](COP(=O)(O)CP(=O)(O)O)[C@@H](O)[C@H]1O)c1ccc(C#N)cc1` [Compound 249], the IC50 (at Human CD73; in experiment [1]) was below 10 nM each time.

As to `C[C@H](Nc1c(C#N)c(Cl)nc2c1cnn2[C@@H]1O[C@H](CS(=O)(=O)CP(=O)(O)O)[C@@H](O)[C@H]1O)c1ccc(C#N)cc1` [Compound 185], the IC50 (on Human CD73; in experiment [1]) was below 10 nM each time.

On to `N#Cc1c(Cl)nc2c(ccn2[C@@H]2O[C@H](CS(=O)(=O)CP(=O)(O)O)[C@@H](O)[C@H]2O)c1N[C@H]1C[C@@H](F)C1` [Compound 149], for which the IC50 (on Human CD73; in experiment [1]) was below 10 nM each time.

For the compound `C[C@@H](Nc1c(C#N)c(Cl)nc2c1cnn2[C@@H]1O[C@H](CS(=O)(=O)CP(=O)(O)O)[C@@H](O)[C@H]1O)c1ccc(F)cc1` [Compound 191], the IC50 (at Human CD73; in experiment [1]) was below 10 nM throughout.

With `N#Cc1c(Cl)nc2c(ccn2[C@@H]2O[C@H](CS(=O)(=O)CP(=O)(O)O)[C@@H](O)[C@@H]2F)c1NC1CC(F)(F)C1` [Compound 169], the IC50 (at Human CD73; in experiment [1]) was below 10 nM in each case.

Turning to `N#Cc1c(Cl)nc2c(ncn2[C@@H]2O[C@H](COCP(=O)(O)O)[C@@H](O)[C@H]2O)c1N1CC2CC2C1` (some centres unmarked) [Compound 58], the IC50 (at Human CD73; in experiment [1]) was below 10 nM throughout.

As to `N#Cc1nc2c(ccn2[C@@H]2O[C@H](CS(=O)(=O)CP(=O)(O)O)[C@@H](O)[C@H]2O)c(N2CCC(F)(F)C2)c1Cl` [Compound 143], the IC50 (on Human CD73; in experiment [1]) was below 10 nM in each case.

For the compound `N#Cc1nc2c(ccn2[C@@H]2O[C@H](COCP(=O)(O)O)[C@@H](O)[C@H]2O)c(N2CCC(F)(F)C2)c1C#N` [Compound 105], the IC50 (at Human CD73; in experiment [1]) was below 10 nM in each case.

In the case of `N#Cc1c(Cl)nc2c(ncn2[C@@H]2O[C@H](CS(=O)(=O)CP(=O)(O)O)[C@@H](O)[C@H]2O)c1N[C@H]1C[C@H](F)C1` [Compound 136], the IC50 was 10 to 100 nM on Human CD73 and below 10 nM in experiment [1].

On to `N#Cc1c(Cl)nc2c(ncn2[C@@H]2O[C@H](COCP(=O)(O)O)[C@@H](O)[C@H]2O)c1N1C[C@@H](F)[C@H](F)C1` [Compound 93], for which the IC50 (at Human CD73; in experiment [1]) was below 10 nM throughout.

Values taken from US12331068B2, “Compositions and methods for inhibiting CD73” (Peloton Therapeutics, Inc., priority 2018, dated 2025).
